# Data published in patent US6583106B2, “Monohydric alcohol derived urethanes and their use in cosmetic formulations” (Alzo International, Inc., priority 1997, dated 2003).
# Tests used:
# [1] = Urethane stability study (hydroxyl value after heat/reflux and pH variation); type: physicochemical; details: before treatment; A.O.C.S. hydroxyl value method
# Protocol: (§1) The following stability study was conducted to determine the structural stability of dimeric urethane compounds according to the present invention compared to mono- and diesters under conditions of pH and thermal variation. Because the decomposition products of the mono- and diesters are alcohol and acid, the degree of decomposition may be accurately determined by measuring the acid value. The measurable decomposition product of the urethane compound is alcohol, which is accurately measured by determining the hydroxyl value.
# IV. Procedure for Urethane Stability
# The following steps were performed on each urethane sample:
# (1) Run hydroxyl value test.
# (2) Follow steps 2-8 for mono- and diester (above).
# (3) Run hydroxyl value test on solution in beaker A.
# (4) Perform step 10, from above.
# (5) Run hydroxyl value test on solution in Beaker B and Beaker C.
# Under conditions of this study, that is,
# “A”: Product in alcoholic/water solution, heat
# “B”: Product in alcoholic/water solution, heat, pH=2.5-3.5
# “C”: Product in alcoholic/water solution, heat, pH=13-14
# [2] = Mono- and diester stability study (acid value after heat/reflux and pH variation); type: physicochemical; details: before treatment; A.O.C.S. T.M. #Cd 3a-63
# Protocol: as §1
# III. Procedure for Determining Mono- or Diester Stability
# The following steps were performed on each ester sample:
# (2) Into three ground glass Erlenmeyer flasks, weigh a 20 g sample of the ester.
# (3) Into each flask, pipette 50 ml of a neutralized (to phenolpthalein end point) Solution of 70% Isopropanol in water. Boiling stones are added.
# (4) Connect flask A to a 4-5 ft. Reflux condenser and heat so that it refluxes 1 ft. High (to approximately 80-90° C.). After connecting flasks A, B and C, proceed to step (7).
# (5) Add 10% Aq. Hcl solution to adjust pH of solution in flask B to pH=2.5-3.5. See step (4).
# (6) Add 20% Aq. KOH Solution to adjust pH of solution in Flask C to pH=13-14. See step (4).
# (8) For each flash, A, B and C, disconnect condenser. Pour Alcoholic solution into wide diameter beaker (A, B and C). Add spin bar. […]
HYDROXYL V INITIAL [1] [mg KOH/g],ACID V INITIAL [2] [mg KOH/g],Compound
16.1,–,Octyl dodecanol dimer with IPDI [Monoderm I-20]
7.3,–,Isocetyl alcohol dimer with IPDI [Monoderm I-16]
–,0.32,Diisopropyl dilinoleate [DID]
–,0.26,"CC(C)OC(=O)CCCCC(=O)OC(C)C [DIA, Diisopropyl adipate]"
5.3,–,Isostearyl alcohol dimer with IPDI [Monoderm I-18]

Compound,HYDROXYL V INITIAL [1] [mg KOH/g],ACID V INITIAL [2] [mg KOH/g]
"CCCCC(CC)COC(=O)NCC1(C)CC(NC(=O)OCC(CC)CCCC)CC(C)(C)C1 (stereo not drawn) [Monoderm I-8, 2-ethyl hexanol dimer with IPDI]",10.3,–
